Measured values taken from patent publication US20150297637A1, “ACTIVATED CARBON COMPRISING AN ADSORBED IODIDE SALT IN A METHOD FOR TREATING CHRONIC BRONCHITIS” (PHARMALUNDENSIS AB, priority 2012, published 2015).
“Also recorded” adds a separate entry of the source.

System: cough and sputum production in a patient with chronic bronchitis
Assay: Use of KI-impregnated charcoal for treating a patient with chronic bronchitis
Format: in vivo, human
Details: one patient; capsule with 10 mg KI per day for one month
Text: A person has for several years experienced increasing problems with cough and mucous production for long periods. They were diagnosed as suffering from chronic bronchitis. They were prescribed standard treatment including corticosteroids, anti-cholinergics, beta2-stimulants and mucolytics such as acetylcysteine.
Since the chronic bronchitis caused considerable inconvenience, they examined alternative ways to reduce the symptoms.
To clarify if the improvement of the chronic bronchitis by KI-impregnated activated charcoal was caused by iodide, […] then took a capsule with 10 mg (which amount is considerably higher than the amount of iodide in the KI-impregnated activated charcoal, 300 mg×1.62%=4.9 mg) KI per day for one month.
Finally, they once again took 300 mg activated charcoal impregnated with 1.6% KI in a 00 vegetable capsule for one month.

SMILES: [I-].[K+] [KI, Potassium iodide]
- Cough and sputum production: did not reduce the cough or sputum production at all; also recorded: no improvement of cough or sputum production
